In ChEMBL document CHEMBL1137915, “SAR and factor IXa crystal structure of a dual inhibitor of factors IXa and Xa” (Bioorg Med Chem Lett, 2004):

Legend:
Coagulation factor X = Coagulation factor X (Homo sapiens, UniProt P00742); assay: Binding affinity towards human factor Xa
Coagulation factor IX = Coagulation factor IX (Homo sapiens, UniProt P00740); assay: Binding affinity towards human factor IXa
Coagulation factor IX, sequence (P00740 47-191 limits assumed): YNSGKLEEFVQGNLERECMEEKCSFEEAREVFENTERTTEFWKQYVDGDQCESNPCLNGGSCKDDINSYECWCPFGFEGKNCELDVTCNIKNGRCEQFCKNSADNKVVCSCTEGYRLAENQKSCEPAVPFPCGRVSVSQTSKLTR
Coagulation factor IX, sequence (P00740 227-461 limits assumed): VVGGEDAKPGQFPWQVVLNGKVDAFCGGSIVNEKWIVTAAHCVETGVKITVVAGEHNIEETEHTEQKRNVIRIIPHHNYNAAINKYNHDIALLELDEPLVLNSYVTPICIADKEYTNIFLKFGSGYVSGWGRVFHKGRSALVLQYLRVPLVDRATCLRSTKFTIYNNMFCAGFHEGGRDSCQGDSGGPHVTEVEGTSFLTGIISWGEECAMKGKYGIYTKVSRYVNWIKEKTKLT

Coagulation factor X, sequence (P00742 41-179 limits assumed): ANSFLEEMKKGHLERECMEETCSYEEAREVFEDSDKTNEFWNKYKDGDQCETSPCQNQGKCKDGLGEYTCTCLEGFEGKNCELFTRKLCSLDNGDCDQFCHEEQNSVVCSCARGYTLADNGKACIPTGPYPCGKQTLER
Coagulation factor X, sequence (P00742 235-488 limits assumed): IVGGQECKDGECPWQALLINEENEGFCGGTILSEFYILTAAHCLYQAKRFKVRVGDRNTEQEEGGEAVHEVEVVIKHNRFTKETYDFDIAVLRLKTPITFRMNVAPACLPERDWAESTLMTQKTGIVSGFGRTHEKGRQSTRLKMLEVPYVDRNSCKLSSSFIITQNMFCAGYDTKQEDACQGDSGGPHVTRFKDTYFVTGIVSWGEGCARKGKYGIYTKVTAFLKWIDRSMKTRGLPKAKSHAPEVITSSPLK

| Ki (Coagulation factor X) [nM] | Ki (Coagulation factor IX) [nM] | Compound |
| --- | --- | --- |
| 0.04 | 7.9 | N=C(N)c1cccc(-n2nc(C(F)(F)F)cc2C(=O)Nc2ccc(-n3cnc4ccncc43)cc2F)c1 |
|  | 4.2 | N=C(N)c1cccc(-n2nc(C(F)(F)F)cc2C(=O)Nc2ccc(-n3cnc4cc(Cl)ccc43)cc2F)c1 |
| 0.03 | 8 | N=C(N)c1cccc(-n2nc(C(F)(F)F)cc2C(=O)Nc2ccc(-n3cnc4cnccc43)cc2F)c1 |
| 0.02 | 7.9 | N=C(N)c1cccc(-n2nc(C(F)(F)F)cc2C(=O)Nc2ccc(-n3cnc4ncccc43)cc2F)c1 |
|  | 1700 | N=C(N)c1cccc(-n2nc(C(F)(F)F)cc2C(=O)Nc2ccc(-n3ccc4ccccc43)cc2F)c1 |
| 0.02 | 13 | N=C(N)c1cccc(-n2nc(C(F)(F)F)cc2C(=O)Nc2ccc(-n3cnc4cccnc43)cc2F)c1 |
|  | 6.4 | N=C(N)c1cccc(-n2nc(C(F)(F)F)cc2C(=O)Nc2ccc(-n3cnc4cc(C(F)(F)F)ccc43)cc2F)c1 |
|  | 10 | Cc1ccc2c(c1)ncn2-c1ccc(NC(=O)c2cc(C(F)(F)F)nn2-c2cccc(C(=N)N)c2)c(F)c1 |
|  | 1900 | Cc1cc(C(=O)Nc2ccc(-c3ccccc3S(N)(=O)=O)cc2)n(-c2cccc(C(=N)N)c2)n1 |
|  | 11 | N=C(N)c1cccc(-n2nc(Cn3cnnn3)cc2C(=O)Nc2ccc(-n3cnc4ccccc43)cc2)c1 |
| 0.19 | 44 | N=C(N)c1cccc(-n2nc(Cn3cncn3)cc2C(=O)Nc2ccc(-n3cnc4ccccc43)cc2)c1 |
| 0.09 | 72 | N=C(N)c1cccc(-n2nc(C(F)(F)F)cc2C(=O)Nc2ccc(-n3ccnc3)cc2)c1 |
|  | 5.1 | N=C(N)c1cccc(-n2nc(C(F)(F)F)cc2C(=O)Nc2ccc(-n3cnc4ccc(Cl)cc43)cc2F)c1 |
|  | 5.5 | N=C(N)c1cccc(-n2nc(-c3cccnc3)cc2C(=O)Nc2ccc(-n3cnc4ccccc43)cc2)c1 |
|  | 15 | N=C(N)c1cccc(-n2nc(-c3cccnc3)cc2C(=O)Nc2ccc(-n3cnc4cc(Cl)ccc43)cc2)c1 |
| 0.09 | 11 | N=C(N)c1cccc(-n2nc(C(F)(F)F)cc2C(=O)Nc2ccc(-n3cnc4ccccc43)cc2)c1 |
|  | 11 | N=C(N)c1cccc(-n2nc(C(F)(F)F)cc2C(=O)Nc2ccc(-n3cnc4cc([N+](=O)[O-])ccc43)cc2F)c1 |
|  | 82 | Cc1cc(C(=O)Nc2ccc(-n3cnc4ccccc43)cc2)n(-c2cccc(C(=N)N)c2)n1 |
| 0.05 | 190 | N=C(N)c1cccc(-n2nc(C(F)(F)F)cc2C(=O)Nc2ccc(N3C(=O)N=C4C=CC=CC43)cc2)c1 (stereo unspecified) |
|  | 26 | N=C(N)c1cccc(-n2nc(C(F)(F)F)cc2C(=O)Nc2ccc(-n3cnc4cc(Cl)c(Cl)cc43)cc2F)c1 |
|  | 11 | N=C(N)c1cccc(-n2nc(C(F)(F)F)cc2C(=O)Nc2ccc(-n3cnc4cc(N)ccc43)cc2F)c1 |
|  | 120 | N=C(N)c1cccc(-n2nc(Cn3ccnc3)cc2C(=O)Nc2ccc(-n3cnc4ccccc43)cc2)c1 |
|  | 20 | N=C(N)c1cccc(-n2nc(Cn3ccnn3)cc2C(=O)Nc2ccc(-n3cnc4ccccc43)cc2)c1 |
